Assay results as given in patent US20240100065A1, “METHODS FOR TREATING RECEPTOR-INTERACTING PROTEIN KINASE 1-MEDIATED DISEASES” (Genzyme Corporation, priority 2022, published 2024).

Assay: Safety and tolerability (TEAEs, PCSAs, laboratory tests) in phase 1 study Parts 1a, 1b, 2
Format: in vivo, healthy adult participants (human)
Method: This single ascending dose (SAD) study consisted of three parts: Part 1a, which is a phase 1, randomized, placebo-controlled, double-blind, sequential ascending single dose study; Part 1b, which is phase 1, open-label, sequential single dose study; and Part 2, which is an ascending 14-day repeated oral dose study.
Part 1a evaluated 4 sequential ascending dose levels of Compound 1 under fasted conditions: 10 mg, 20 mg, 30 mg, and 40 mg, each dose per cohort. Participants were fasted overnight for at least 8 hours before the morning dose and 2 hours after dosing.
Part 1b is an open-label study with two single dose levels of Compound 1, previously tested for safety/tolerability in SAD cohorts of Part 1a, were selected (10 mg and 40 mg) and sequentially administered under a fed condition, each dose per cohort. Participants were fasted overnight for at least 8 hours, and then fed with a light breakfast approximately 30 minutes before Compound 1 dosing. In both Part 1a and 1b, all participants received one single dose of treatment.
Part 2 was a randomized, double-blind, placebo-controlled study that evaluated 14-day multiple ascending oral doses of Compound 1 once daily (OD) or twice daily (BID) regimen under fasted conditions: 10 mg QD, 20 mg QD, 15 mg BID, and 20 mg BID. Participants fasted overnight for at least 8 hours before the morning dose and 2 hours after dosing on Day 1 and Day 14. All other morning doses were administered after an overnight fast and approximately 30 minutes before a breakfast snack. Sentinel dosing approach was followed where two of ten participants in each cohort were dosed the first day (n=1, Compound; n=1, placebo) in advance of the full cohort. The remaining 8 participants from each cohort were randomized to receive either Compound or placebo (randomized 7:1) on the following days with at least 48-hour interval from dosing of the sentinel participants, allowing a safety evaluation at the predicted steady state.
Safety and tolerability were assessed by physical examination, neurological examination, monitoring adverse events (AEs) and potentially clinically significant abnormalities (PCSAs) in clinical laboratory tests (hematology, clinical chemistry, and urinalysis), vital signs (body temperature, blood pressure and heart rate), and ECG parameters (heart rate, RR, PR, QRS, QT, QTcF, QTcB intervals) measured in the standard 12-lead ECG or ECGs extracted from 24-hour Holter ECG data.
Safety population included all participants who received at least one dose of study intervention (Compound 1 or placebo). All safety assessments (AEs, laboratory parameters, vital signs) were based on the review of individual values and were summarized using descriptive statistics. Safety analysis was focused on treatment-emergent period, defined as the time from the first investigational medicinal product (IMP) administration up to the end of study visit (included). AEs were coded according to the Medical Dictionary for Regulatory Activities (MedDRA, version 23.1 in Part 1a and Part 1b; version 24 in Part 2). Severity was graded from Grade 1 to 4 according to the Food and Drug Administration (FDA) Guidance for Industry. Number (%) of participants experiencing TEAEs and potentially clinically significant abnormality (PCSAs) in clinical chemistry, vital signs, and ECGs were summarized by dose level group.

CC(C)(C(=O)N1CCOc2c(C#N)cncc2C1)C(F)F [Compound 1, 4-(3,3-difluoro-2,2-dimethyl-propanoyl)-3,5-dihydro-2H-pyrido[3,4-f] [1,4]oxazepine-9-carbonitrile]
Any Grade ≥3 TEAE, participants (Part 1a single 10 mg fasted): 0 n | Any TEAE, participants (Part 1a single 10 mg fasted): 2 n | Any treatment-emergent AESI, participants (Part 1a single 10 mg fasted): 0 n | Any treatment-emergent SAE, participants (Part 1a single 10 mg fasted): 0 n | TEAE Blood creatine phosphokinase increased, participants (Part 1a single 10 mg fasted): 0 n | TEAE Cardiac disorders, participants (Part 1a single 10 mg fasted): 1 n | TEAE Dermatitis contact, participants (Part 1a single 10 mg fasted): 1 n | TEAE Dizziness, participants (Part 1a single 10 mg fasted): 0 n | TEAE Eye disorders, participants (Part 1a single 10 mg fasted): 0 n | TEAE Fatigue, participants (Part 1a single 10 mg fasted): 0 n | TEAE General disorders and administration site conditions, participants (Part 1a single 10 mg fasted): 0 n | TEAE Headache, participants (Part 1a single 10 mg fasted): 0 n | TEAE Investigations, participants (Part 1a single 10 mg fasted): 0 n | TEAE Keratitis, participants (Part 1a single 10 mg fasted): 0 n | TEAE Medical device site dermatitis, participants (Part 1a single 10 mg fasted): 0 n | TEAE Musculoskeletal and connective tissue disorders, participants (Part 1a single 10 mg fasted): 0 n | TEAE Myalgia, participants (Part 1a single 10 mg fasted): 0 n | TEAE Nervous system disorders, participants (Part 1a single 10 mg fasted): 0 n | TEAE Presyncope, participants (Part 1a single 10 mg fasted): 0 n | TEAE Skin and subcutaneous tissue disorders, participants (Part 1a single 10 mg fasted): 1 n | TEAE Skin irritation, participants (Part 1a single 10 mg fasted): 0 n | TEAE Tachycardia, participants (Part 1a single 10 mg fasted): 0 n | TEAE Thrombophlebitis, participants (Part 1a single 10 mg fasted): 0 n | TEAE Vascular disorders, participants (Part 1a single 10 mg fasted): 0 n | TEAE Ventricular extrasystoles, participants (Part 1a single 10 mg fasted): 1 n | TEAE Vessel puncture site hypoaesthesia, participants (Part 1a single 10 mg fasted): 0 n | TEAE Vessel puncture site pain, participants (Part 1a single 10 mg fasted): 0 n | Any Grade ≥3 TEAE, participants (Part 1a single 20 mg fasted): 0 n | Any TEAE, participants (Part 1a single 20 mg fasted): 1 n | Any treatment-emergent AESI, participants (Part 1a single 20 mg fasted): 0 n | Any treatment-emergent SAE, participants (Part 1a single 20 mg fasted): 0 n | TEAE Blood creatine phosphokinase increased, participants (Part 1a single 20 mg fasted): 0 n | TEAE Cardiac disorders, participants (Part 1a single 20 mg fasted): 1 n | TEAE Dermatitis contact, participants (Part 1a single 20 mg fasted): 0 n | TEAE Dizziness, participants (Part 1a single 20 mg fasted): 0 n | TEAE Eye disorders, participants (Part 1a single 20 mg fasted): 0 n | TEAE Fatigue, participants (Part 1a single 20 mg fasted): 0 n | TEAE General disorders and administration site conditions, participants (Part 1a single 20 mg fasted): 0 n | TEAE Headache, participants (Part 1a single 20 mg fasted): 1 n | TEAE Investigations, participants (Part 1a single 20 mg fasted): 0 n | TEAE Keratitis, participants (Part 1a single 20 mg fasted): 0 n | TEAE Medical device site dermatitis, participants (Part 1a single 20 mg fasted): 0 n | TEAE Musculoskeletal and connective tissue disorders, participants (Part 1a single 20 mg fasted): 0 n | TEAE Myalgia, participants (Part 1a single 20 mg fasted): 0 n | TEAE Nervous system disorders, participants (Part 1a single 20 mg fasted): 1 n | TEAE Presyncope, participants (Part 1a single 20 mg fasted): 0 n | TEAE Skin and subcutaneous tissue disorders, participants (Part 1a single 20 mg fasted): 0 n | TEAE Skin irritation, participants (Part 1a single 20 mg fasted): 0 n | TEAE Tachycardia, participants (Part 1a single 20 mg fasted): 1 n | TEAE Thrombophlebitis, participants (Part 1a single 20 mg fasted): 0 n | TEAE Vascular disorders, participants (Part 1a single 20 mg fasted): 0 n | TEAE Ventricular extrasystoles, participants (Part 1a single 20 mg fasted): 0 n | TEAE Vessel puncture site hypoaesthesia, participants (Part 1a single 20 mg fasted): 0 n | TEAE Vessel puncture site pain, participants (Part 1a single 20 mg fasted): 0 n | Any Grade ≥3 TEAE, participants (Part 1a single 30 mg fasted): 0 n | Any TEAE, participants (Part 1a single 30 mg fasted): 3 n | Any treatment-emergent AESI, participants (Part 1a single 30 mg fasted): 0 n | Any treatment-emergent SAE, participants (Part 1a single 30 mg fasted): 0 n | Dizziness, events (Part 1a single 30 mg fasted): 3 events | TEAE Blood creatine phosphokinase increased, participants (Part 1a single 30 mg fasted): 0 n | TEAE Cardiac disorders, participants (Part 1a single 30 mg fasted): 0 n | TEAE Dermatitis contact, participants (Part 1a single 30 mg fasted): 1 n | TEAE Dizziness, participants (Part 1a single 30 mg fasted): 2 n | TEAE Eye disorders, participants (Part 1a single 30 mg fasted): 1 n | TEAE Fatigue, participants (Part 1a single 30 mg fasted): 1 n | TEAE General disorders and administration site conditions, participants (Part 1a single 30 mg fasted): 1 n | TEAE Headache, participants (Part 1a single 30 mg fasted): 0 n | TEAE Investigations, participants (Part 1a single 30 mg fasted): 0 n | TEAE Keratitis, participants (Part 1a single 30 mg fasted): 1 n | TEAE Medical device site dermatitis, participants (Part 1a single 30 mg fasted): 0 n | TEAE Musculoskeletal and connective tissue disorders, participants (Part 1a single 30 mg fasted): 0 n | TEAE Myalgia, participants (Part 1a single 30 mg fasted): 0 n | TEAE Nervous system disorders, participants (Part 1a single 30 mg fasted): 2 n | TEAE Presyncope, participants (Part 1a single 30 mg fasted): 0 n | TEAE Skin and subcutaneous tissue disorders, participants (Part 1a single 30 mg fasted): 1 n | TEAE Skin irritation, participants (Part 1a single 30 mg fasted): 0 n | TEAE Tachycardia, participants (Part 1a single 30 mg fasted): 0 n | TEAE Thrombophlebitis, participants (Part 1a single 30 mg fasted): 1 n | TEAE Vascular disorders, participants (Part 1a single 30 mg fasted): 1 n | TEAE Ventricular extrasystoles, participants (Part 1a single 30 mg fasted): 0 n | TEAE Vessel puncture site hypoaesthesia, participants (Part 1a single 30 mg fasted): 0 n | TEAE Vessel puncture site pain, participants (Part 1a single 30 mg fasted): 0 n | Any Grade ≥3 TEAE, participants (Part 1a single 40 mg fasted): 0 n | Any TEAE, participants (Part 1a single 40 mg fasted): 3 n | Any treatment-emergent AESI, participants (Part 1a single 40 mg fasted): 0 n | Any treatment-emergent SAE, participants (Part 1a single 40 mg fasted): 0 n | Dizziness, events (Part 1a single 40 mg fasted): 1 event | TEAE Blood creatine phosphokinase increased, participants (Part 1a single 40 mg fasted): 0 n | TEAE Cardiac disorders, participants (Part 1a single 40 mg fasted): 1 n | TEAE Dermatitis contact, participants (Part 1a single 40 mg fasted): 1 n | TEAE Dizziness, participants (Part 1a single 40 mg fasted): 1 n
